Test results as given in US10258041B2, “Substituted pyrazolylpyrazole derivative and use of same as herbicide” (KYOYU AGRI CO., LTD., priority 2015, dated 2019).

Key:
Assay type in all cases: in vivo
[1] = tested on: Chenopodium album; assay: Farming soil treatment test; details: soil surface spray prior to weed growth, 30 days, 30° C.
Experimental: (§1) Evaluation of herbicidal efficacy was carried out by comparing growth inhibition rate (%) with an untreated group, while evaluation of chemical damage was carried out by comparing growth inhibition rate (%) with the state of a complete eradication group, and were evaluated at 11 levels indicated below. • 0 (exponent): 0% to less than 10% (growth inhibition rate) • 1: 10% to less than 20% • 2: 20% to less than 30% • 3: 30% to less than 40% • 4: 40% to less than 50% • 5: 50% to less than 60% • 6: 60% to less than 70% • 7: 70% to less than 80% • 8: 80% to less than 90% • 9: 90% to less than 100% • 10: 100% Field soil was filled into a 1/6000 are pot followed by seeding with Digitaria ciliaris, Chenopodium album and Amraranthus retroflexus and covering with soil. Wettable powders of compounds of formula (I) shown in Table 1 prepared in compliance with the preparation examples were diluted with water to the prescribed amount of chemical and uniformly sprayed onto each soil surface layer using 100 liters of sprayed water per 10 are prior to weed growth following seeding. After treating for 30 days in a glass greenhouse at an average atmospheric temperature of 30° C., the herbicidal efficacy thereof was investigated. Evaluation of herbicidal efficacy was carried out in the same manner as the above-mentioned Test Example 1,

[2] = tested on: Amaranthus retroflexus; assay: Farming soil treatment test; details: soil surface spray prior to weed growth, 30 days, 30° C.
Experimental: as §1

[3] = tested on: Digitaria ciliaris; assay: Farming soil treatment test; details: soil surface spray prior to weed growth, 30 days, 30° C.
Experimental: as §1

[4] = tested on: Echinochloa crus-galli; assay: Paddy herbicidal activity test; details: irrigated pot, treated at 3.5 leaf stage of Echinochloa crus-galli, 30 days
Experimental: (§2) Rice paddy soil was filled into a 1/10000 are pot followed by the addition of suitable amounts of water and chemical fertilizer, kneading, seeding with Echinochloa crus-galli, Monochoria vaginalis and Scirpus juncoides and maintaining in an irrigated state at a water depth of 3 cm. Wettable powders of Target Compound (I) shown in Table 1 prepared in compliance with the preparation examples were diluted with a suitable amount of water, rice plants in the 2.0 leaf stage were transplanted during 3.5 leaf stage of Echinochloa crus-galli, and treated by dropping in chemical in the prescribed amount per 10 are using a pipette. After treating for 30 days in a glass greenhouse at an average atmospheric temperature of […], the herbicidal efficacy thereof was investigated. Evaluation of herbicidal efficacy was carried out by comparing growth inhibition rate (%) with an untreated group, while evaluation of chemical damage was carried out by comparing growth inhibition rate (%) with the state of a complete eradication group, and were evaluated at 11 levels indicated below. • 0 (exponent): 0% to less than 10% (growth inhibition rate) • 1: 10% to less than 20% • 2: 20% to less than 30% • 3: 30% to less than 40% • 4: 40% to less than 50% • 5: 50% to less than 60% • 6: 60% to less than 70% • 7: 70% to less than 80% • 8: 80% to less than 90% • 9: 90% to less than 100% • 10: 100%

[5] = tested on: Monochoria vaginalis; assay: Paddy herbicidal activity test; details: irrigated pot, treated at 3.5 leaf stage of Echinochloa crus-galli, 30 days
Experimental: as §2

[6] = tested on: Scirpus juncoides; assay: Paddy herbicidal activity test; details: irrigated pot, treated at 3.5 leaf stage of Echinochloa crus-galli, 30 days
Experimental: as §2

[7] = tested on: Oryza sativa; assay: Paddy herbicidal activity test, chemical damage to transplanted rice; details: rice transplanted in 2.0 leaf stage, 30 days
Experimental: as §2

[8] = tested on: Chenopodium album; assay: Weed foliar treatment test (Test 3); details: foliar spray at 1.0 to 2.0 leaf stage of Digitaria ciliaris, 3 weeks, 25° C.
Experimental: (§3) Evaluation of herbicidal efficacy was carried out by comparing growth inhibition rate (%) with an untreated group, while evaluation of chemical damage was carried out by comparing growth inhibition rate (%) with the state of a complete eradication group, and were evaluated at 11 levels indicated below. • 0 (exponent): 0% to less than 10% (growth inhibition rate) • 1: 10% to less than 20% • 2: 20% to less than 30% • 3: 30% to less than 40% • 4: 40% to less than 50% • 5: 50% to less than 60% • 6: 60% to less than 70% • 7: 70% to less than 80% • 8: 80% to less than 90% • 9: 90% to less than 100% • 10: 100% Soil was filled into a 1/6000 are pot followed by seeding with Digitaria ciliaris, Chenopodium album and Amaranthus retroflexus, covering with soil, and cultivating in a glass greenhouse at an average atmospheric temperature of 25° C. Wettable powders of Target Compound (I) shown in Table 1 prepared in compliance with the preparation examples were diluted with water to the prescribed amount of chemical and uniformly sprayed onto the weeds using 150 liters of sprayed water per 10 are when Digitaria ciliaris had grown to the 1.0 to 2.0 leaf stage. After treating for 3 weeks in a glass greenhouse at an average atmospheric temperature of 25° C., the herbicidal efficacy thereof was investigated. Evaluation of herbicidal efficacy was carried out in the same manner as the above-mentioned Test Example 1.

[9] = tested on: Amaranthus retroflexus; assay: Weed foliar treatment test (Test 3); details: foliar spray at 1.0 to 2.0 leaf stage of Digitaria ciliaris, 3 weeks, 25° C.
Experimental: as §3

[10] = tested on: Digitaria ciliaris; assay: Weed foliar treatment test (Test 3); details: foliar spray at 1.0 to 2.0 leaf stage of Digitaria ciliaris, 3 weeks, 25° C.
Experimental: as §3

[11] = tested on: Digitaria ciliaris; assay: Weed foliar treatment test (Test 4, higher leaf stage); details: 10 g a.i./10a; foliar spray at 4.0 to 5.0 leaf stage of Digitaria ciliaris (plant height 10 cm to 15 cm); 20 days, 25° C.
Experimental: (§4) Evaluation of herbicidal efficacy was carried out by comparing growth inhibition rate (%) with an untreated group, while evaluation of chemical damage was carried out by comparing growth inhibition rate (%) with the state of a complete eradication group, and were evaluated at 11 levels indicated below. • 0 (exponent): 0% to less than 10% (growth inhibition rate) • 1: 10% to less than 20% • 2: 20% to less than 30% • 3: 30% to less than 40% • 4: 40% to less than 50% • 5: 50% to less than 60% • 6: 60% to less than 70% • 7: 70% to less than 80% • 8: 80% to less than 90% • 9: 90% to less than 100% • 10: 100% Field soil was filled into a 1/4500 are pot followed by seeding with Digitaria ciliaris and Galinsoga parviflora, covering with soil and cultivating in a glass greenhouse at an average atmospheric temperature of 25° C. Wettable powders of Target Compound (I) shown, in Table 1 prepared in compliance with the preparation examples were diluted with water to the prescribed amount of chemical and uniformly sprayed onto the weeds using 100 liters of sprayed water per 10 are when Digitaria ciliaris had grown to the 4.0 to 5.0 leaf stage (plant height: 10 cm to 15 cm). After treating for 20 days in a glass greenhouse at an average atmospheric temperature of 25° C., the herbicidal efficacy thereof was investigated. Evaluation of herbicidal efficacy was carried out in the same manner as the above-mentioned Test Example 1.

[12] = tested on: Galinsoga parviflora; assay: as above; details: 10 g a.i./10a; foliar spray at 4.0 to 5.0 leaf stage of Digitaria ciliaris; 20 days, 25° C.
Experimental: as §4

Row | Compound | herbicidal efficacy (growth inhibition rate level), Chenopodium album ([1]; 5 g a.i./10a) | herbicidal efficacy (growth inhibition rate level), Chenopodium album ([1]; 10 g a.i./10a) | herbicidal efficacy (growth inhibition rate level), Amaranthus retroflexus ([2]; 5 g a.i./10a) | herbicidal efficacy (growth inhibition rate level), Amaranthus retroflexus ([2]; 10 g a.i./10a) | herbicidal efficacy (growth inhibition rate level), Digitaria ciliaris ([3]; 5 g a.i./10a) | herbicidal efficacy (growth inhibition rate level), Digitaria ciliaris ([3]; 10 g a.i./10a) | herbicidal efficacy (growth inhibition rate level), Echinochloa crus-galli ([4]; 1 g a.i./10a) | herbicidal efficacy (growth inhibition rate level), Echinochloa crus-galli ([4]; 5 g a.i./10a) | herbicidal efficacy (growth inhibition rate level), Monochoria vaginalis ([5]; 1 g a.i./10a) | herbicidal efficacy (growth inhibition rate level), Monochoria vaginalis ([5]; 5 g a.i./10a) | herbicidal efficacy (growth inhibition rate level), Scirpus juncoides ([6]; 1 g a.i./10a) | herbicidal efficacy (growth inhibition rate level), Scirpus juncoides ([6]; 5 g a.i./10a) | chemical damage (growth inhibition rate level), Oryza sativa ([7]; 1 g a.i./10a) | chemical damage (growth inhibition rate level), Oryza sativa ([7]; 5 g a.i./10a) | herbicidal efficacy (growth inhibition rate level), Chenopodium album ([8]; 5 g a.i./10a) | herbicidal efficacy (growth inhibition rate level), Chenopodium album ([8]; 10 g a.i./10a) | herbicidal efficacy (growth inhibition rate level), Amaranthus retroflexus ([9]; 5 g a.i./10a) | herbicidal efficacy (growth inhibition rate level), Amaranthus retroflexus ([9]; 10 g a.i./10a) | herbicidal efficacy (growth inhibition rate level), Digitaria ciliaris ([10]; 5 g a.i./10a) | herbicidal efficacy (growth inhibition rate level), Digitaria ciliaris ([10]; 10 g a.i./10a) | other results
1 | N#Cc1cnn(-c2nn3c(c2Cl)CCCC3)c1NC(=O)CCCl [Control Agent 1.36] | 4 (4: 40% to less than 50%) | 4 (4: 40% to less than 50%) | 4 (4: 40% to less than 50%) | 5 (5: 50% to less than 60%) | 3 (3: 30% to less than 40%) | 4 (4: 40% to less than 50%) | 2 (2: 20% to less than 30%) | 4 (4: 40% to less than 50%) | 3 (3: 30% to less than 40%) | 4 (4: 40% to less than 50%) | 1 (1: 10% to less than 20%) | 3 (3: 30% to less than 40%) | 2 (2: 20% to less than 30%) | 3 (3: 30% to less than 40%) | 4 (4: 40% to less than 50%) | 4 (4: 40% to less than 50%) | 5 (5: 50% to less than 60%) | 6 (6: 60% to less than 70%) | 2 (2: 20% to less than 30%) | 3 (3: 30% to less than 40%) | herbicidal efficacy (growth inhibition rate level), Digitaria ciliaris [11]: 1 (1: 10% to less than 20%); herbicidal efficacy (growth inhibition rate level), Galinsoga parviflora [12]: 5 (5: 50% to less than 60%)
2 | CCC(=O)Nc1c(C#N)cnn1-c1nn2c(c1Cl)CCCC2 [Control Agent 4.187] | 2 (2: 20% to less than 30%) | 3 (3: 30% to less than 40%) | 4 (4: 40% to less than 50%) | 5 (5: 50% to less than 60%) | 2 (2: 20% to less than 30%) | 3 (3: 30% to less than 40%) | 2 (2: 20% to less than 30%) | 3 (3: 30% to less than 40%) | 3 (3: 30% to less than 40%) | 3 (3: 30% to less than 40%) | 0 (0 (exponent): 0% to less than 10% (growth inhibition rate)) | 1 (1: 10% to less than 20%) | 1 (1: 10% to less than 20%) | 2 (2: 20% to less than 30%) | 2 (2: 20% to less than 30%) | 3 (3: 30% to less than 40%) | 5 (5: 50% to less than 60%) | 6 (6: 60% to less than 70%) | 2 (2: 20% to less than 30%) | 3 (3: 30% to less than 40%) | herbicidal efficacy (growth inhibition rate level), Digitaria ciliaris [11]: 2 (2: 20% to less than 30%); herbicidal efficacy (growth inhibition rate level), Galinsoga parviflora [12]: 3 (3: 30% to less than 40%)
3 | N#Cc1cnn(-c2nn3c(c2Cl)CCCC3)c1NC(=O)CCl [Control Agent 1.9] | 1 (1: 10% to less than 20%) | 2 (2: 20% to less than 30%) | 5 (5: 50% to less than 60%) | 6 (6: 60% to less than 70%) | 0 (0 (exponent): 0% to less than 10% (growth inhibition rate)) | 1 (1: 10% to less than 20%) | 2 (2: 20% to less than 30%) | 2 (2: 20% to less than 30%) | 2 (2: 20% to less than 30%) | 2 (2: 20% to less than 30%) | 0 (0 (exponent): 0% to less than 10% (growth inhibition rate)) | 1 (1: 10% to less than 20%) | 1 (1: 10% to less than 20%) | 1 (1: 10% to less than 20%) | 1 (1: 10% to less than 20%) | 2 (2: 20% to less than 30%) | 6 (6: 60% to less than 70%) | 6 (6: 60% to less than 70%) | 2 (2: 20% to less than 30%) | 2 (2: 20% to less than 30%) | herbicidal efficacy (growth inhibition rate level), Digitaria ciliaris [11]: 1 (1: 10% to less than 20%); herbicidal efficacy (growth inhibition rate level), Galinsoga parviflora [12]: 5 (5: 50% to less than 60%)
